The text below walks through data of patent US10160726B2, “Quinolone derivatives as antibacterials” (priority 2014, dated 2018).

In assay [1] the target is E. coli DNA gyrase (GyrA-B) (Escherichia coli, UniProt P0AES4). The assay is described as follows: Supercoiling assay of E. coli gyrase. The note with it: supercoiling activity of E. coli gyrase (GyrA-B); read-out: GyrA-B IC50 (Enzyme). It is filed as biochemical. Here is the method: Method 1: Supercoiling Assay of E. Coli Gyrase
Enzymatic activity of E. coli DNA gyrase reconstituted from its purified subunits was assessed by monitoring the introduction of supercoils into the relaxed plasmid pHOT-1 (TopoGEN, TG2035-3). To form the functional gyrase A2B2 heterotetrameric enzyme, equal molar concentrations of the GyrA and GyrB subunits were combined at high protein concentration (500 nM) and incubated on ice for 1 hour prior to assay start in reaction buffer without ATP or the pHOT-1 plasmid. The reaction mixture (25 μl) contained 10 nM enzyme, 10 ng/μl pHOT-1, 1 mM ATP, 35 mM Tris-HCl pH 7.5, 24 mM KCl, 4 mM MgCl2, 2 mM DTT, 1.8 mM spermidine, 6.5% glycerol, and 100 μg/ml bovine serum albumin. The reaction was carried out at 37° C. for 90 minutes and terminated by the addition of 2.5 μl of 10× stop solution (0.9% SDS, 50% glycerol, 0.05% bromophenol blue). […] Gels were stained with ethidium bromide (0.5 μg/ml) for 30 minutes and destained in water for 20 minutes. All gels were analyzed using the BIO-RAD ChemiDocTm XRS+ with Image Lab 3.0 software. The 50% inhibition concentration (IC50) was determined as being the compound concentration at which the supercoiled band was reduced by 50% from the DMSO drug free control (Microsoft Excel 2010 IDBS XLfit, GraftPad Prism 6).

In assay [2] the test system is S. aureus NB01006-AVR005 (gyrA S84L, grlA S80F, grlB E471K). Briefly: microbe, parasite or virus in culture. It is filed as cell-based. The note with it: Staphylococcus aureus, 20 h, read-out: Antibacterial activity (MIC) NB01006-AVR005.
The subject of assay [3] is E. coli ATCC 25922 (NB27001). The assay is described as follows: MIC, broth microdilution (CLSI). The format is cell-based. The note with it: Escherichia coli, ATCC25922; E. coli ATCC 25922; 35° C., 20 hours; read-out: Antibacterial activity (MIC) NB27001.
In assay [4] the test system is E. coli NB27177 (efflux deficient CGSC 11430, ΔtolC732::kan). The assay is described as follows: microbe, parasite or virus in culture. It is filed as cell-based. As to conditions: Escherichia coli, 20 h, read-out: Antibacterial activity (MIC) NB27177.
The subject of assay [5] is P. aeruginosa NB52019 (wild-type PAO1). The assay is described as follows: MIC, broth microdilution (CLSI). It is filed as cell-based. The note with it: Pseudomonas aeruginosa, read-out: Antibacterial activity (MIC) NB52019. (In general: Broth dilution looks for growth in wells or tubes with falling amounts of substance.)
Assay [6] concerns P. aeruginosa NB52023 (efflux deficient K1542, ΔmexX ΔmexB). The assay is described as follows: microbe, parasite or virus in culture. It is filed as cell-based. The note with it: Pseudomonas aeruginosa, 20 h, read-out: Antibacterial activity (MIC) NB52023.
Assay [7] relates to P. aeruginosa NB52023-CDK0006 (gyrA T83I, parC S87L). The assay is described as follows: microbe, parasite or virus in culture. It is filed as cell-based. The note with it: Pseudomonas aeruginosa, 20 h, read-out: Antibacterial activity (MIC) NB52023-CDK0006.
Assay [8] has as its system S. aureus ATCC 29213 (NB01001). Briefly: MIC, broth microdilution (CLSI). The note with it: Staphylococcus aureus, ATCC29213; S. aureus ATCC 29213; 35° C., 20 hours; read-out: Antibacterial activity (MIC) NB01001. It is filed as cell-based.
The mark [9] stands for this setting: P. aeruginosa wild-type PAO1, 35° C., 20 hours.

In brackets after ≈: the same amount, converted by molar mass. Counter-ions that a name gives are not always drawn. Like-named read-outs stand apart in the source and are kept apart here.

Chain of E. coli DNA gyrase (GyrA-B) (P0AES4 whole entry): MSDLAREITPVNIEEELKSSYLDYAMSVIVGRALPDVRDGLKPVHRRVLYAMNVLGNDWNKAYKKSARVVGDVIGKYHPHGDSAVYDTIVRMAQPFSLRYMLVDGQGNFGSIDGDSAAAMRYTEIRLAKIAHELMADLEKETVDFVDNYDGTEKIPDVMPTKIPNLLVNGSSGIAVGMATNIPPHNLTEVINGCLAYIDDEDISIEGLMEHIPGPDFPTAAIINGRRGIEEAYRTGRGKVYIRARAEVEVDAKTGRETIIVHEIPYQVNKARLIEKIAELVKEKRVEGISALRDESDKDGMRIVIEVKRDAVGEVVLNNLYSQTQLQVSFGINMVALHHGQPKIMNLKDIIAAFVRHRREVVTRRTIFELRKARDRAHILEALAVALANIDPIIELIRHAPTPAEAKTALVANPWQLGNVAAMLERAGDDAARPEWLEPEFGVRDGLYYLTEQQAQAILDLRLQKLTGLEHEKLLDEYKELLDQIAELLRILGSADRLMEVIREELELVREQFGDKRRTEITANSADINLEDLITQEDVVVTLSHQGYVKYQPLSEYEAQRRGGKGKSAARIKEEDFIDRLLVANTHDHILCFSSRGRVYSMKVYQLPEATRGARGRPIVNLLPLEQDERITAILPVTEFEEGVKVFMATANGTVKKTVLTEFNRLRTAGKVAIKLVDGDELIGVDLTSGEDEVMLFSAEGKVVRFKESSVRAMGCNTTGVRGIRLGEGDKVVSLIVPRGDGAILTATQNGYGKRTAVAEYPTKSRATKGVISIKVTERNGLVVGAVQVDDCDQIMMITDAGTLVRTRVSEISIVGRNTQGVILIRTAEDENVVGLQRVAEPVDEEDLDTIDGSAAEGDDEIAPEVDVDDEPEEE

Consider `Cc1c(N2CC[C@@H]([C@H](C)N)C2)c(F)cc2cc(C(=O)O)c(=O)n(C3CC3)c12.Cl` [Example 1.1, 7-((R)-3-((S)-1-aminoethyl)pyrrolidin-1-yl)-1-cyclopropyl-6-fluoro-8-methyl-2-oxo-1,2-dihydroquinoline-3-carboxylic acid hydrochloride salt], for which, in assay [1], the IC50 came to 0.68 µM. Besides, the MIC in assay [2] came to 2 µg/mL.
For the molecule `Cc1c(N2CC[C@@H]([C@H](C)N)C2)c(F)cc2cc(N)c(=O)n(C3CC3)c12` [Example 8, 3-amino-7-((R)-3-((S)-1-aminoethyl)pyrrolidin-1-yl)-1-cyclopropyl-6-fluoro-8-methylquinolin-2(1H)-one hydrochloride salt], in assay [1], the IC50 was determined as 1.68 µM.
Turning to `Cc1c(N2CCC(C3(N)CC3)C2)c(F)cc2ccc(=O)n(C3CC3)c12` (stereo not drawn) [Example 9.2, 7-(3-(1-Aminocyclopropyl)pyrrolidin-1-yl)-1-cyclopropyl-6-fluoro-8-methylquinolin-2(1H)-one], the IC50 in assay [1] came to 1.19 µM. Also, the MIC was 4 µg/mL (≈ 11.7 µM) in assay [3]; 0.06 µg/mL (≈ 0.176 µM) in assay [4]; above 32 µg/mL in assay [5] (PAO1, 20 h); 16 µg/mL (≈ 46.9 µM) in assay [6]; 32 µg/mL (≈ 93.7 µM) in assay [7]; 0.125 µg/mL (≈ 0.366 µM) in assay [8]. Moreover, the MIC in assay [2] came to 0.125 µg/mL (≈ 0.366 µM).
Consider `Cc1c(-c2ccc(N)nc2)c(F)cc2cc(O)c(=O)n(C3CC3)c12` [Example 11.2, 7-(6-aminopyridin-3-yl)-1-cyclopropyl-6-fluoro-3-hydroxy-8-methylquinolin-2(1H)-one], for which the IC50 in assay [1] was determined as 8.07 µM. Moreover, the MIC was 8 µg/mL (≈ 24.6 µM) in assay [3]; 0.125 µg/mL (≈ 0.384 µM) in assay [4]; above 32 µg/mL in assay [5] (PAO1, 20 h); 16 µg/mL (≈ 49.2 µM) in assay [6]; above 32 µg/mL in assay [7]; 1 µg/mL (≈ 3.07 µM) in assay [8]. The MIC in assay [2] came to 2 µg/mL (≈ 6.15 µM).
Consider `COc1c(N2CC[C@@H]([C@H](C)N)C2)c(F)cc2cc(C(=O)O)c(=O)n(C3CC3)c12` [Example 12, 7-((R)-3-((S)-1-aminoethyl)pyrrolidin-1-yl)-1-cyclopropyl-6-fluoro-8-methoxy-2-oxo-1,2-dihydroquinoline-3-carboxylic acid hydrochloride], for which the IC50 in assay [1] stood at 4.64 µM.
Turning to `Cc1c(N2CC[C@@H]([C@H](C)N)C2)c(F)cc2c(C(=O)O)cc(=O)n(C3CC3)c12` [Example 33, 7-((R)-3-((S)-1-aminoethyl)pyrrolidin-1-yl)-1-cyclopropyl-6-fluoro-8-methyl-2-oxo-1,2-dihydroquinoline-4-carboxylic acid], the IC50 in assay [1] was 16.3 µM. In addition, the MIC in assay [3] was 32 µg/mL (≈ 85.7 µM); in assay [4], 16 µg/mL (≈ 42.8 µM); in assay [5] (PAO1, 20 h), 32 µg/mL (≈ 85.7 µM); in assay [6], above 32 µg/mL; in assay [7], above 32 µg/mL; in assay [8], 32 µg/mL (≈ 85.7 µM). In addition, in assay [2], the MIC was above 32 µg/mL.
In the case of `Cc1c(N2CC[C@@H]([C@H](C)N)C2)c(F)cc2c(-c3nnn[nH]3)cc(=O)n(C3CC3)c12` [Example 39, 7-((R)-3-((S)-1-aminoethyl)pyrrolidin-1-yl)-1-cyclopropyl-6-fluoro-8-methyl-4-(1H-tetrazol-5-yl)quinolin-2(1H)-one], the IC50 in assay [1] amounted to 9.8 µM. Also, the MIC in assay [3] was 32 µg/mL (≈ 80.5 µM); in assay [4], 32 µg/mL (≈ 80.5 µM); in assay [5] (PAO1, 20 h), 32 µg/mL (≈ 80.5 µM); in assay [6], above 32 µg/mL; in assay [7] it was above 32 µg/mL; in assay [8], 32 µg/mL (≈ 80.5 µM). In assay [2], the MIC is above 32 µg/mL.
Regarding `Cc1c(N2CC[C@@H]([C@H](C)N)C2)c(F)cc2c(OCc3n[nH]c(=O)o3)cc(=O)n(C3CC3)c12` [Example 64, 5-(((7-((R)-3-((S)-1-aminoethyl)pyrrolidin-1-yl)-1-cyclopropyl-6-fluoro-8-methyl-2-oxo-1,2-dihydroquinolin-4-yl)oxy)methyl)-1,3,4-oxadiazol-2(3H)-one], in assay [1], the IC50 was 3.2 µM. Further, the MIC in assay [3] is 32 µg/mL (≈ 72.2 µM); in assay [4] it was 4 µg/mL (≈ 9.02 µM); in assay [5] (PAO1, 20 h), above 32 µg/mL; in assay [6], above 32 µg/mL; in assay [7], above 32 µg/mL; in assay [8], 8 µg/mL (≈ 18 µM). In addition, in assay [2], the MIC turned out to be 4 µg/mL (≈ 9.02 µM).
For the molecule `Cc1c(N2CCC(CN)C2)c(F)c(CN)c2ccc(=O)n(C3CC3)c12.O=C(O)C(F)(F)F` (stereo not drawn) [Example 100, 5-(aminomethyl)-7-(3-(aminomethyl)pyrrolidin-1-yl)-1-cyclopropyl-6-fluoro-8-methylquinolin-2(1H)-one TFA salt], the MIC in assay [3] is 32 µg/mL; in assay [4] it was 2 µg/mL; in assay [5] (setting [9]), above 32 µg/mL; in assay [6], 8 µg/mL; in assay [7] it was 16 µg/mL; in assay [8] it was 8 µg/mL. Further, the MIC in assay [2] is 4 µg/mL.
For `Cc1c(F)c(N2CCC(CN)C2)c(C)c2c1ccc(=O)n2C1CC1.O=C(O)C(F)(F)F` (stereo not drawn) [Example 101, 7-(3-(aminomethyl)pyrrolidin-1-yl)-1-cyclopropyl-6-fluoro-5,8-dimethylquinolin-2(1H)-one TFA salt], the MIC in assay [3] was 8 µg/mL; in assay [4] it was 0.125 µg/mL; in assay [5] (setting [9]), above 32 µg/mL; in assay [6] it was 8 µg/mL; in assay [7], 16 µg/mL; in assay [8], 0.5 µg/mL. Moreover, the MIC in assay [2] was 0.125 µg/mL.
Turning to `Cc1c(N2CC[C@@H]([C@H](C)N)C2)c(F)c(F)c2ccc(=O)n(C3CC3)c12.O=C(O)C(F)(F)F` [Example 106, 7-((R)-3-((S)-1-aminoethyl)pyrrolidin-1-yl)-1-cyclopropyl-5,6-difluoro-8-methyl quinolin-2(1H)-one TFA], the MIC in assay [3] is 0.125 µg/mL; in assay [4], below 0.03 µg/mL; in assay [5] (setting [9]), 2 µg/mL; in assay [6], 0.5 µg/mL; in assay [7], 1 µg/mL; in assay [8], 0.015 µg/mL. For the same molecule, the MIC in assay [2] turned out to be 0.015 µg/mL.
Take `Cl.NCc1c(N2CCC(F)(CN)C2)c(F)cc2ccc(=O)n(C3CC3)c12` (stereo not drawn) [Example 111, 8-(aminomethyl)-7-(3-(aminomethyl)-3-fluoropyrrolidin-1-yl)-1-cyclopropyl-6-fluoroquinolin-2(1H)-one HCl salt]: the MIC was 8 µg/mL in assay [3]; 2 µg/mL in assay [4]; above 32 µg/mL in assay [5] (setting [9]); 8 µg/mL in assay [6]; 16 µg/mL in assay [7]; 8 µg/mL in assay [8]. Moreover, the MIC in assay [2] is 8 µg/mL.
Consider `Cl.N#Cc1c(N2CC[C@H](N)C2)c(F)cc2ccc(=O)n(C3CC3)c12` [Example 113, (S)-7-(3-aminopyrrolidin-1-yl)-1-cyclopropyl-6-fluoro-2-oxo-1,2-dihydroquinoline-8-carbonitrile HCl salt], for which the MIC in assay [3] was 0.5 µg/mL; in assay [4] it was 0.125 µg/mL; in assay [5] (setting [9]), 16 µg/mL; in assay [6] it was 2 µg/mL; in assay [7] it was 4 µg/mL; in assay [8], 8 µg/mL. Further, in assay [2], the MIC worked out at 16 µg/mL.
With `N#Cc1c(N2CC[C@H](N)C2)c(F)cc2c(CN)cc(=O)n(C3CC3)c12` [Example 114, (S)-4-(aminomethyl)-7-(3-aminopyrrolidin-1-yl)-1-cyclopropyl-6-fluoro-2-oxo-1,2-dihydroquinoline-8-carbonitrile], the MIC in assay [3] is 2 µg/mL (≈ 5.86 µM); in assay [4] it was 0.5 µg/mL (≈ 1.46 µM); in assay [5] (PAO1, 20 h), 16 µg/mL (≈ 46.9 µM); in assay [6] it was 2 µg/mL (≈ 5.86 µM); in assay [7], 4 µg/mL (≈ 11.7 µM); in assay [8] it was 16 µg/mL (≈ 46.9 µM). Besides, in assay [2], the MIC is 32 µg/mL (≈ 93.7 µM).
With `Cc1c(N2CCC(F)(CN)C2)c(F)c(F)c2c(CN)cc(=O)n(C3CCC3)c12` (stereo not drawn) [Example 115, 4-(aminomethyl)-7-(3-(aminomethyl)-3-fluoropyrrolidin-1-yl)-1-cyclobutyl-5,6-difluoro-8-methylquinolin-2(1H)-one TFA salt], the MIC was 1 µg/mL in assay [3]; 0.5 µg/mL in assay [4]; above 32 µg/mL in assay [5] (PAO1, 20 h); 8 µg/mL in assay [6]; 16 µg/mL in assay [7]; 2 µg/mL in assay [8]. For the same molecule, in assay [2], the MIC came to 4 µg/mL.

One may read the IC50 as the concentration that gives 50% inhibition.
